The test concerns LLC1 tumor cells (Lewis lung cancer cell line). Nature of the test: Lewis lung (LLC) peritoneal carcinomatosis model, tumor resistance test. Format: in vivo, C57BL/6J mice. The note with it: for number of mice with tumors: 5 mice per group, 26th day, control: all mice; for average size of tumors (width times length): injected daily for 13 days, sacrificed on 26th day, control 12.38. The source says:
Lewis lung (LLC) peritoneal carcinomatosis model was used for treatment and prevention of cancer in vivo animal tests, referring to Bertram J S, Janik P., Cancer Lett 1980 November;11(1):63-73; Hirazumi A, Furusawa E. Phytother Res. 1999 August;13(5):380-7; Itoh H, Noda H, Amano H, Ito H. Anticancer Res. 1995 September-October;15(5B):1937-47; Wallace P K, Morahan P S., J Leukoc Biol. 1994 July;56(1) :41-51.; Redmond HP, Schuchter L, Bartlett D, Kelly C J, Shou J, Leon P, Daly J M. , J Surg Res. 1992 April;52(4):406-11; Kagawa K, Yamashita T, Tsubura E, Yamamura Y., Cancer Res. 1984 February;44(2):665-70; and Yamamoto T, Yamashita T, Tsubura E., Invasion Metastasis. 1981; 1(1) :71-84.
Twenty male C57BL/6J mice of two month old were separated into four groups for 5 mice/each. Each mouse was inoculated with 1×10^5 LLC1 tumor cells (Lewis lung cancer cell line) by abdominal injection around the thigh on the first day, i.e. day 0. Each group of mice was treated differently for 13 days as described below and treatment was stopped for 12 days. The mice were sacrificed on the 26th day. The abdomen of each mouse was dissected to examine the tumor size. The size of tumor was defined as width times length.
5 mice were used as the control group. The mice in the control group were injected daily with 100 microliters of saline with propylene glycol (3.05 μl propylene glycol in 100 ml normal saline) for 13 days. The treatment was stopped for 12 days and the mice were sacrificed on the 26th day after inoculation with LLC1 tumor cells. All mice had tumors with an average size of 12.38.
Authentic lovastatin sample was prepared and dissolved in saline with […] as indicated above. The dose amount for administration was adjusted according to mice body weight. The dose amount indicated was the proportional equivalent of lovastatin for human subjects of 60 Kg body weight.
Five C57BL/6J mice were inoculated with 1×10^5 LLC1 cells on day 0 as described above. Lovastatin equivalent of 80 mg/person was injected daily on the other side of the abdomen every day for 13 days. The treatment was stopped for 12 days and the mice were sacrificed on the 26th day after inoculation of LLC1 tumor cells. All mice had tumors with an average size of 9.96.
The same procedures of L80 were followed except that the dose amount for administration was changed to 200 mg/day/person equivalent. Three mice had tumors with an average size of 6.8.
The liquid fermentation product obtained from sample 2 was centrifuged 10,000 rpm for 20 minutes. The supernatant was collected and further filtrated with a 0.2 micron filter in sterile condition. The concentration of lovastatin in the derived filtrate was detected as 0.45 mg/ml. The dose amount for administration was adjusted according to mice body weight. The equivalent amount of lovastatin for human subjects was used for mice tumor resistance tests as indicated.
The same procedures of example L80 were followed except that the sample was Monascus composition. The dose amount for administration was equivalent to 80 mg lovastatin/day/person. The filtrate was administrated in the ratio of 60 μl filtrate to 40 μl saline.
The same procedures of example M80 were followed except that the administration sample was Monascus composition. The dose amount for administration was equivalent to 200 mg lovastatin/day/person. The filtrate was administrated in the ratio of 60 μl filtrate to 40 μl saline.

The mark [1] stands for this setting: dose equivalent to 80 mg lovastatin/day/person.
The mark [2] stands for this setting: dose equivalent to 200 mg lovastatin/day/person.

Data on one compound can be found in US20040081663A1, “Pharmaceutical composition for treatment and prevention of cancer and the preparation thereof” (priority 2002, published 2004).

For the compound `CC[C@H](C)C(=O)O[C@H]1C[C@@H](C)C=C2C=C[C@H](C)[C@H](CC[C@@H]3C[C@@H](O)CC(=O)O3)[C@H]21` [Lovastatin, lovastatin], the “number of mice with tumors” value was “All” under setting [1] and “Three” under setting [2]. Also, the “average size of tumors (width times length)” value is, setting by setting: under setting [1], 9.96; under setting [2], 6.8. Also, where the note is “higher dose of lovastatin (L200) and Monascus compositions M80 and M200”, the “tumor size (FIG. 6), in words” value was “smaller tumor sizes”.
